The values that follow come from ChEMBL document CHEMBL1268888, “Antiviral activity of 2,3'-anhydro and related pyrimidine nucleosides against hepatitis B virus” (Bioorg Med Chem Lett, 2010).

Converted amounts (≈) assume the structure as drawn.

A short description of data set [1]: Cytotoxicity against human HuH7 cells. It is filed as cell-based, Huh-7.
In data set [2] the test system is Hepatitis B virus. Put plainly: Antiviral activity against HBV infected in human 2.2.15 cell at 10 ug/ml. It is filed as functional, organism-based. To be noted: HepG2 2.2.15.
For data set [3], the system named is Hepatitis B virus. The data set is described as follows: Antiviral activity against HBV infected in human 2.2.15 cell. It is filed as functional, organism-based. To be noted: HepG2 2.2.15.
Data set [4] can be described thus: Stability of the compound in fetal bovine serum at 37 degC after 24 hrs. The format is ADME. To be noted: cattle.
Data set [5] concerns Hepatitis B virus. Put plainly: Antiviral activity against HBV infected in duck primary hepatocytes. It is filed as functional, organism-based. As to conditions: Hepatocyte.
The subject of data set [6] is Hepatitis B virus. Put plainly: Antiviral activity against HBV infected in duck primary hepatocytes at 10 ug/ml. It is filed as functional. To be noted: Hepatocyte.
Data set [7] in a line: Stability of the compound in PBS buffer at physiological pH and 37 degC upto 48 hrs. It is filed as physicochemical.

As a reminder, the CC50 is the concentration at which the toxic effect on the cells reaches its halfway point. Read a high CC50 as lower toxicity to the cells. By inhibition is commonly meant the relative decrease from the control value, in per cent. Usually EC50 stands for the concentration that produces a half-maximal response. In turn, `CCc1cn([C@@H]2O[C@H](CO)[C@@H](O)[C@@H]2F)c(=O)[nH]c1=O` registered a 50% cytotoxic concentration (CC50) in data set [1] of more than 200 µg/mL. Moreover, testing at 10 µg/mL in the data set on Hepatitis B virus [2] gave an inhibition of 90%. In the data set on Hepatitis B virus [3], this molecule registered an EC50 of less than 10 µg/mL.

In the case of `O=c1ccn2c(n1)O[C@H]1C[C@H]2O[C@@H]1CO`, the Stability entry in data set [4] and in data set [7] was “Stable” in each case. Also, the CC50 in data set [1] is more than 200 µg/mL. Also, the concentration giving a half-maximal response (EC50) was found to be 2.5 µg/mL (≈ 11.9 µM) in the data set with Hepatitis B virus [5] and 5 µg/mL (≈ 23.8 µM) with Hepatitis B virus [3]. In addition, the inhibition at 10 µg/mL is 67% in the data set on Hepatitis B virus [6] and 65% in the data set with Hepatitis B virus [2].

Take `O=c1nc2n(cc1F)[C@H]1C[C@H](O2)[C@@H](CO)O1`: the Stability result in data set [4] and in data set [7] was “Stable” in each case. Moreover, in data set [1], the CC50 was more than 200 µg/mL. The results for the inhibition at 10 µg/mL in the data set on Hepatitis B virus [6] and in the data set with Hepatitis B virus [2] were 30% and 0%, respectively.

As for `Cc1cn2c(nc1=O)O[C@H]1C[C@H]2O[C@@H]1CO`, the Stability result in data set [4] and in data set [7] was “Stable” each time. The same molecule came in with a CC50 in data set [1] of more than 200 µg/mL. Moreover, the 50% effective concentration (EC50) with Hepatitis B virus [5] and in the data set with Hepatitis B virus [3] was 10 µg/mL (≈ 44.6 µM) in each case. The inhibition at 10 µg/mL in the data set with Hepatitis B virus [6] stood at 56%; in the data set with Hepatitis B virus [2], 54%.

`O=c1nc2n(cc1C(F)(F)F)[C@H]1C[C@H](O2)[C@@H](CO)O1`: the Stability result in data set [4] and in data set [7] was “Stable” throughout. This molecule also returned a CC50 in data set [1] of more than 200 µg/mL. In addition, the EC50 in the data set on Hepatitis B virus [5] is more than 10 µg/mL. In addition, the figures for the inhibition at 10 µg/mL with Hepatitis B virus [6] and in the data set with Hepatitis B virus [2] were 35% and 25%, respectively.

With `CCc1cn2c(nc1=O)O[C@H]1C[C@H]2O[C@@H]1CO`, the Stability entry in data set [4] and in data set [7] was “Stable” each time. For the same molecule, the CC50 in data set [1] is more than 200 µg/mL. Besides, the results for the inhibition at 10 µg/mL in the data set on Hepatitis B virus [6] and in the data set on Hepatitis B virus [2] were 32% and 51%, respectively. The molecule also registered an EC50 in the data set with Hepatitis B virus [3] of 10 µg/mL (≈ 42 µM).

For `CCc1cn2c(nc1=O)O[C@H]1[C@H](F)[C@H]2O[C@@H]1CO`, the Stability result in data set [4] and in data set [7] was “Stable” throughout. Also, the CC50 in data set [1] was more than 200 µg/mL. Moreover, the 50% effective concentration (EC50) in the data set on Hepatitis B virus [5] came out at 2.5 µg/mL (≈ 9.76 µM); in the data set on Hepatitis B virus [3] it was 10 µg/mL (≈ 39 µM). The inhibition at 10 µg/mL with Hepatitis B virus [6] stood at 65%; in the data set with Hepatitis B virus [2] it was 53%.

With `Cc1cn([C@H]2C[C@@H](OS(C)(=O)=O)[C@@H](CO)O2)c(=O)[nH]c1=S`, the cytotoxic concentration (CC50) in data set [1] is more than 200 µg/mL. Besides, the EC50 was 2.5 µg/mL (≈ 7.43 µM) with Hepatitis B virus [5] and more than 10 µg/mL in the data set on Hepatitis B virus [3]. Further, the inhibition at 10 µg/mL came to 70% in the data set on Hepatitis B virus [6] and 45% with Hepatitis B virus [2].

In data set [1], `Cc1cn([C@H]2C[C@@H](O)[C@@H](CO)O2)c(=O)[nH]c1=O` showed a cytotoxic concentration (CC50) of more than 200 µg/mL.

Take `O=c1ccn([C@H]2C[C@H](O)[C@@H](CO)O2)c(=O)[nH]1` [DEOXYURIDINE]: the CC50 in data set [1] was more than 200 µg/mL. 10 µg/mL produced 0% inhibition in the data set on Hepatitis B virus [2].

On to `Cc1cn([C@H]2C[C@H](O)[C@@H](CO)O2)c(=O)[nH]c1=O` [DOXRIBTIMINE], for which the CC50 in data set [1] was more than 200 µg/mL. For the same molecule, the inhibition at 10 µg/mL in the data set on Hepatitis B virus [2] was 0%.

In data set [1], `CCc1cn([C@H]2C[C@H](O)[C@@H](CO)O2)c(=O)[nH]c1=O` [EDOXUDINE] displayed a cytotoxic concentration (CC50) of more than 200 µg/mL. For the same molecule, in the data set with Hepatitis B virus [2], the inhibition at 10 µg/mL stood at 40%. Besides, the EC50 in the data set on Hepatitis B virus [3] was more than 10 µg/mL.

In data set [1], `Nc1ccn([C@@H]2CS[C@H](CO)O2)c(=O)n1` [LAMIVUDINE] yielded a CC50 of more than 200 µg/mL. In addition, the EC50 worked out at 0.05 µg/mL (≈ 0.218 µM) in the data set on Hepatitis B virus [5] and 0.2 µg/mL (≈ 0.872 µM) with Hepatitis B virus [3]. For the same molecule, the results for the inhibition at 10 µg/mL in the data set with Hepatitis B virus [6] and in the data set with Hepatitis B virus [2] were 96% and 88%, respectively.

`O=c1[nH]c(=O)n([C@H]2C[C@H](O)[C@@H](CO)O2)cc1C(F)(F)F` [TRIFLURIDINE]: in data set [1], the CC50 is more than 200 µg/mL. The inhibition at 10 µg/mL in the data set on Hepatitis B virus [2] was 0%.
